Test results taken from patent publication US20090281025A1, “INHIBITION OF TUMOR GROWTH AND METASTASIS BY ATF2-DERIVED PEPTIDES” (Mount Sinai School Of Medicine of New York University, priority 2004, published 2009).
“Also recorded” adds a separate entry of the source.

Tests used:
[1] = tested on: LU1205 human melanoma cells; test: Growth of LU1205 human melanoma tumors expressing ATF2 peptide in nude mice; format: in vivo, mouse
Description: (§1) LU1205 or FEMX human melanoma tumor-derived cell lines that constitutively express ATF2^51-100 peptide or that contain control vector were each injected subcutaneously into a group of 6 nude mice (10^6 cells per injection) per cell line per experiment. […] The data shown represent three experiments. Bars represent standard deviation, P<0.0015. […] The data shown represent three experiments. Bars represent standard deviation, P<0.0021.
(§2) The ability of expressed ATF2^51-100 peptide to affect the tumorigenicity of human melanoma cells in vivo was examined. To this end, growth of LU1205 and FEMX human melanoma cells were monitored in nude mice in the presence or absence of treatment that induced apoptosis in vitro. LU1205, FEMX and SW-1 cells that express control or ATF2^51-100 peptide were trypsinized, resuspended in PBS and injected SC (1×10^6) into 6-7 week old mice in the lower flank. When the tumor reached the size of about 50 mm^3, 10 μM of SB203580 was injected into 4 areas of the LU1205 tumors every 4 days during a 2 week period. For FEMX tumors, UCN-01 (5 mg/Kg) was fed by gavage, three times per week for a total of 2 weeks. Tumor growth was monitored every two days. Tissue samples were fixed in formalin and embedded in paraffin. Hematoxylin and eosin (H&E), TUNEL staining was performed as previously described (Bhoumik et al., Clin. Cancer Res., 2001; 2:331-342).

[2] = tested on: FEMX human melanoma cells; test: Growth and TUNEL apoptosis of FEMX human melanoma tumors expressing ATF2 peptide in nude mice; format: in vivo
Description: as §1, §2

SW1 cells = test: Tumor growth of SW1 cells constitutively expressing ATF2 peptides, injected subcutaneously; format: in vivo, mouse; settings: 10^6 SW1 cells SC, 18 days; control construct 1100 mm^3
Method: SW1 cells, which constitutively express the peptides indicated in FIG. 4A, were analyzed to detect expression of ATF2 peptides at the RNA level using RT-PCR. The indicated MW bands reflect the expected size product. SW1 cells (10^6) were injected subcutaneously into […] mice and tumor growth was monitored for 18 days, at which point tumors were removed and their size carefully assessed (FIG. 4B). Each group included 6 animals and each experiment was performed twice (P<0.01; T-test).
Inhibition of Tumor Growth. To examine the importance of the JNK association domain on ATF2, the possible role of a smaller peptide containing an intact JNK binding site (i.e., amino acids M^51T^52 of ATF2) was examined. To this end, three peptides of differing sizes (amino acids 51-80, 51-70, and 51-60) were compared to ATF2^51-100 peptide in their ability to inhibit tumor growth of SW1 cells in vivo. RT-PCR reactions confirmed the expression of these peptides' transcripts in the SW1 cells (FIG. 4A). […] However, expression of the 50aa peptide in these cells (constitutive expression based on selection of drug-resistant cells) decreased tumor size to 300 mm^3. Strikingly, constitutive expression of each of the 3 shorter peptides also elicited inhibition of melanoma growth that varied from 400-600 mm^3 (FIG. 4B). […] Further evaluation was performed on this 10 amino acid peptide.

SW1 melanoma cells = test: Apoptosis of SW1 cells by FACS (hypodiploid nuclei); format: cell-based, mouse; settings: SW1 cells expressing peptide, given as control-to-peptide increase
Method: SW1 cells constitutively expressing the indicated ATF2 peptides were transfected with either TRE-Luc (FIG. 5A) or with Jun2-Luc (FIG. 5B), and proteins were prepared for analysis of luciferase activity after 18 hours. Analysis was performed in duplicate, and the data reflect three independent experiments. SW1 cells expressing the ATF2 peptides were analyzed to establish the degree of spontaneous (basal) apoptosis as well as apoptosis 24 hours following treatment with the chemotherapeutic drug UCN-01 (FIG. 5C). The data represent triplicate analysis reproduced three times.
Effect on Apoptosis. Assessed next was the degree of apoptosis in SW1 cells under normal growth (spontaneous) as well as following treatment with chemotherapeutic drugs. Cells were analyzed to detect spontaneous (basal) or induced apoptosis [following treatment with the kinase inhibitor UCN-01 (kindly provided by NCI repository) for 36 hours]. Apoptosis was measured by using FACS (Ivanov et al., Mol. Cell, 2001, 7:517-28) to quantify the percentage of hypodiploid nuclei undergoing DNA fragmentation. Nucleation as a marker of apoptosis was monitored via DAPI staining of cells at indicated time points after their treatment. Caspase activity was monitored by immunoblots using antibodies to caspase 9 (Santa Cruz). PARP cleavage was monitored by corresponding antibodies (PharMingen).

human melanoma cells = settings: cited from earlier work

ATF2^51-100: amino-terminal peptide of ATF2, amino acid residue 51 to 100 (about a 50 amino acid peptide), expressed in tumor cells (MTLKFGPARNDSVIVADQTPTPTRFLKNCEEVGLFNELASPFENEFKKAS; UniProt P15336 51-100, looked up, fragment)
tumor growth rate ([1]; LU1205 cells constitutively expressing peptide, SC in nude mice): reduced the growth rates; also recorded: inhibits growth | tumor growth with additional treatment ([1]; peptide-expressing LU1205 tumors plus p38 inhibitor SB203580 10 μM intratumoral): additional decrease in growth | tumor growth rate ([2]; FEMX cells constitutively expressing peptide, SC in nude mice): reduced the growth rates; also recorded: inhibits growth | tumor growth with additional treatment ([2]; peptide-expressing FEMX tumors plus UCN-01 5 mg/Kg by gavage): additional decrease in growth | degree of apoptosis in tumors (TUNEL) ([2]; peptide-expressing tumors upon exposure to additional treatment): marked increase in the degree of apoptosis | tumor size (SW1 cells): 300 mm^3 | spontaneous (basal) apoptosis (SW1 melanoma cells; absence of treatment): 12-55% | UCN-01-induced apoptosis (SW1 melanoma cells; treated with UCN-01): 20-77% | degree of programmed cell death (spontaneous and induced apoptosis) (human melanoma cells; combined with an inhibitor of the p38 catalytic activity): increase in the degree of programmed cell death | sensitivity to UV radiation or mitomycin C, adriamycin and verapamil, or UCN-01 (apoptosis assays) (human melanoma cells; compared with three other 50 amino acid amino-terminal ATF2 peptides): most efficient increase in the sensitivity | cell surface expression of Fas (human melanoma cells; late stage melanoma cells): increased cell surface expression of Fas
